In patent publication US20080288176A1 (priority 2005, published 2008):

How the values were obtained:
[1] = Stability in gastric environment (gastric decay rate); assay type: in vitro ADME
Source text: (§1) The physiologically based pharmacokinetic/pharmacodynamic model of the present invention contains a series of compartments that describe the time course of a nonsteroidal anti-inflammatory prodrug, its active metabolites and nitric oxide release in intestine, liver, kidneys, blood/plasma and heart after prodrug administration. The time course of the prodrug, its active metabolites and nitric oxide release can be simulated using a series of in vitro and in silico inputs. The stability of each component in the gastrointestinal lumen is estimated using data collected from artificial gastric and intestinal juice. Intestinal metabolism is estimated using intestinal microsomes and absorption rate is estimated using permeability data collected from a cell monolayer such as Caco-2. Hepatic elimination is estimated using liver microsomes and stability in plasma is calculated using degradation of each component in the media. Plasma protein binding can either be measured using a standardized in vitro method or it can be estimated using an in silico method. The distribution of each component in various parts of the body is estimated using an in silico method. The rate of nitric oxide release is estimated using an in vitro endothelial cell model. The time course of prodrug, its active metabolites and nitric oxide can be simulated in human and animal using this physiologically based pharmacokinetic/pharmacodynamic model provided that the corresponding in vitro and in silico data are used as inputs.
(§2) Representative in vitro tests or in silico estimates include: (a) pKa estimation or measurement; (b) Log P measurement or in silico estimation; (c) Solubility in various physiological fluids; (d) Permeability. Caco-2 and/or NOVOKIN's proprietary animal and human cell lines can be used to obtain this parameter; (e) Metabolic rate in the intestine and liver. Human or animal intestinal microsomes, S9 fraction, and cytosol can be used for this purpose. Human or animal hepatocytes, liver microsomes, S9 fraction, and cytosol can also be used; (f) Hydrolysis in human or animal plasma; (g) Serum or plasma protein binding. It can be measured in vitro or estimated in silico; (h) The rate of NO release; (i) Existing pharmacokinetic and pharmacodynamic data of NSAID or a biocompatible agent; (j) Existing NO release rate of known diazeniumdiolate if applicable; (k) Stability in gastric and intestinal environment; and (l) In silico volume of distribution estimation.

[2] = Hydrolysis in rat liver microsomes; assay type: in vitro ADME; details: for liver microsomal activity: model input
Source text: as §1, §2
(§3) Whenever in vitro estimate is attainable, the in vitro results will be used, for example, plasma protein binding. Methods reported by Bowalgaha & Miners (2001), Martignoni et al. (2006), Tong et al. (2001) and Thulesen et al. (1999) were used for in vitro and in vivo scale-up for clearance in the intestine, absorption rate constant and hepatic clearance. The simulation begins with no material in all compartments except for the initial bolus in one compartment (typically the stomach compartment). The simulation then estimates the changing distribution of the material with time.

[3] = Hydrolysis in human intestinal microsomes; assay type: in vitro ADME; details: for intestinal microsomal activity: model input
Source text: as §1
The selection of in vitro tests is designed to provide parameters for the above mentioned model. The use of an inappropriate test would result in wrong predictions. For example, Knaus et al. (2005) used guinea pig serum and porcine esterases to hydrolyze their O^2-substituted diazeniumdiolate derivatives of ASPIRIN, as disclosed in U.S. Ser. No. 60/681,842. These tests provided very little information in terms of in vivo human NO-NSAID metabolism rate and the extent to which metabolic conversion to NO donor and NSAID occurred. […] The half-life values were less than one minute. Based on these observations, it has become apparent that prior to entering the systemic circulation, it is likely that the NO-NSAID would have been hydrolyzed in the enterocytes and little or no NO-NSAID would have been detected in the blood stream. Furthermore, the release of NO will commence immediately once the NO donor is detached from the NSAID.
as §2, §3

[4] = Stability in intestinal lumen (decay rate); assay type: in vitro ADME
Source text: as §1, §2

[5] = Serum nitrate concentration (NO release) after oral dosing; assay type: in vivo, rat; details: male Wistar rats, oral gavage, at 6 hours
Procedure: (§4) Table 1 is a summary of the protocol for a study which was conducted in male Wistar rats weighing 275-300 grams. The animals were allowed to acclimatize for at least five days prior to the commencement of the study. The study protocol was approved by the local animal ethics committee.
(§5) The animals were fasted overnight prior to test substance administration. The test substance was administered orally by gavage on the morning of the study day. All test animals had blood collected during the test period in both EDTA (ethylenediaminetetraacetic acid) tubes and SST (Serum Separator Tubes) at 1, 3 and 6 hours after dosing. Blood was collected into EDTA tubes only at 1 and 3 hours by tail tip amputation. Volume of blood collected was between 0.5 and 1 mL at each of these collections. The final collection was by puncture of the abdominal vena cava under isoflurane general anesthesia. Final blood collection was targeted as follows: 1st EDTA #1—1.5 mL; 2nd SST—1.5 mL; 3rd EDTA #2—as much as possible.
EDTA samples were centrifuged, and the plasma portion was collected and frozen at −80° C. SST samples were incubated at 37° C. for approximately 45 minutes, centrifuged, and the serum was collected and frozen at −80° C. until analysis.

male Wistar rats = assay: Gastric ulcer index after oral dosing; assay type: in vivo, rat; details: for Ulcer Indices, Mean: oral gavage, naproxen 250 mg/kg or molar equivalent (ROF 250 mg/kg), 6 h after dosing, mean aggregate gastric ulcer length; for Ulcerogenicity (in words): oral, 6 h
Procedure: as §4, §5
Each animal from all groups underwent a full necropsy under the supervision of a board certified veterinary pathologist. The stomach of each rat was cut along the greater curvature, contents removed into a polypropylene (Falcon) tube, the mucosa rinsed with saline and any obvious ulcers or erosions were measured along the longest axis. This measurement was recorded for each ulcer or erosion observed in each stomach. The falcon tubes and their contents were frozen at −80° C. and shipped to Novokin on dry ice for analysis.
The aggregate length of all gastric ulcers found in a given animal was calculated. The mean aggregate ulcer length across animals in a group was calculated. This mean value was reported as the ulcer index for that group.
The ulcer index of each modified drug was compared with the ulcer index of its associated parent drug and the controls using analysis of variance and Duncan's multiple range test for pairwise comparisons. Statistical analysis was done using SAS® (SAS Institute Inc., Cary, N.C.).

SMILES | gastric decay rate constant ([1]; Human) | gastric decay rate constant ([1]; Rat) | liver microsomal activity [2] [mL/min/organ] | intestinal microsomal activity [3] [mL/min/organ] | intestinal lumen decay rate constant ([4]; Human) [min⁻¹] | intestinal lumen decay rate constant ([4]; Rat) [min⁻¹] | Serum Nitrate Concentrations, Mean [5] | Ulcer Indices, Mean (male Wistar rats) | Ulcerogenicity (in words) (male Wistar rats) | liver molar percent conversion to Naproxen [2] [%] | intestinal molar percent conversion to Naproxen [3] [%]
COc1ccc2cc([C@H](C)C(=O)OCCCCO[N+](=O)[O-])ccc2c1 [AZD 3582] | 0 /mint | 0 /mint | 1029 | 554 | 0 | 0 | 460.667 | 3.444 | severely ulcerogenic | – | –
COc1ccc2cc(C(C)C(=O)OCON=[N+]([O-])N3CCCC3)ccc2c1 (centres unmarked) [PYRO-NO-NAP, pyrrolidino-diazeniumdiolate-naproxen] | 0 /mint | 0 /mint | 1920 | 188 | 0.025 | 0.025 | 389.000 | 1.450 | not significantly different from vehicle | 40 | 87
